The results in this text go back to patent US4678775A, “Method of controlling pests” (priority 1984, dated 1987).

Data set [1] has as its system adenylate cyclase in nerve cord of tobacco hornworm. The data set is described as follows: Adenylate cyclase activation in broken cell preparations of tobacco hornworm nerve cord. Format: biochemical, tobacco hornworm (Manducca sexta). As to conditions: FIG. 1. As to the method:
Otherwise, the procedure is identical to that described above.
The tissue is homogenized (usually 15 mg/ml) as above in 6 mM Tris maleate, pH 7.4. […] This is done to cancel out the effects of dopamine and serotonin receptors which are usually present in nerve cord.
As detailed previously, the adenylate cyclase assay, either in the firefly or in other insect pest, is also used to identify a direct stimulator of adenylate cyclase.

Data set [2] concerns the target T1, Beta1 and Beta2-adrenergic-stimulated adenylate cyclase in rat liver (Rattus norvegicus, UniProt P10608).
T1 construct: adenylate cyclase in rat heart and liver; from tissue; host or cells: rat liver
The data set is described as follows: Adenylate cyclase stimulation in rat liver. Format: biochemical.

For data set [3], the target named is T2, dopamine-sensitive adenylate cyclase in rat caudate nucleus (Rattus norvegicus, UniProt P18901).
T2 construct: in the rat caudate nucleus; from tissue; host or cells: rat caudate nucleus
The data set is described as follows: Adenylate cyclase stimulation in rat caudate nucleus. The format is biochemical.

Data set [4] deals with isolated tails of Photinus males. The data set is described as follows: Stimulation of light production after injection into transected, isolated firefly tails. Format: in vivo. Conditions: injected into isolated tails.
The subject of data set [5] is tobacco hornworms (Manducca sexta). In words: In vivo leaf test (antifeeding) on tomato leaves with tobacco hornworm larvae. As to conditions: for Ki for inhibition of feeding by the larvae: applied to leaves; for rank order antifeeding effectiveness: based on the EC50 of the octopamine agonist, alone or +IBMX; for behaviour of larvae feeding on treated leaves: in vivo; for effect of addition of IBMX on antifeeding / pesticidal activity: with PDE inhibitor IBMX.

The test system of data set [6] is cyclic AMP in intact nerve cords of tobacco hornworms. In words: Cyclic AMP content of intact tobacco hornworm nerve cords. As to conditions: 5 minutes. Format: cell-based. As to the method:
After 5 minutes, the intact nerve cord was quickly treated to release all cyclic AMP which was present within the tissue.

Data set [7] deals with octopamine-sensitive adenylate cyclase. In words: Activation of octopamine-sensitive adenylate cyclase, firefly light organ broken cell preparation. The format is biochemical, Photinus pyralis.

T1 sequence (P10608 whole entry): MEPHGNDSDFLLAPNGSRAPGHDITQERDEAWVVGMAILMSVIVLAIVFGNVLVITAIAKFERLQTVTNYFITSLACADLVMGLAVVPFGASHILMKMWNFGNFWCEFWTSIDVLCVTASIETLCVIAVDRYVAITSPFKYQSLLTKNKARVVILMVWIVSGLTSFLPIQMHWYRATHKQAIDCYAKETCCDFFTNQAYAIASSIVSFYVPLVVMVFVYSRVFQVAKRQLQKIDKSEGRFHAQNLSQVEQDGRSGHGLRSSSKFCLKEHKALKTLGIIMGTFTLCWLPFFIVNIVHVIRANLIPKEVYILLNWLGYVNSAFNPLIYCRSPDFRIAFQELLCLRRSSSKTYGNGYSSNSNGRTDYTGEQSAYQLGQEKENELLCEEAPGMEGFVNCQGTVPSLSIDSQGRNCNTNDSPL
T2 sequence (P18901 whole entry): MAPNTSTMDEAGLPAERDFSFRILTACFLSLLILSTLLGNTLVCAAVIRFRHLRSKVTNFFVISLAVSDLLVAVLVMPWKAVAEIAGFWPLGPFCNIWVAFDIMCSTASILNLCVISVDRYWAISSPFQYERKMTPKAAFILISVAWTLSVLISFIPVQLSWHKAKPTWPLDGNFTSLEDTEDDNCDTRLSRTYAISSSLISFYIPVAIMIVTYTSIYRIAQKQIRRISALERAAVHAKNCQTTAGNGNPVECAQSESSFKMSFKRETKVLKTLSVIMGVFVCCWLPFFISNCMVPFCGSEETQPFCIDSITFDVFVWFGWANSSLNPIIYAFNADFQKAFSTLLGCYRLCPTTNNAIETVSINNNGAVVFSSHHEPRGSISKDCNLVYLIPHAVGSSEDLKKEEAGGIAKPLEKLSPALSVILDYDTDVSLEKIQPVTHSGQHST

As for `NCC(O)c1ccc(O)cc1` (racemic) [octopamine, reference compound], in data set [1], the “activation of adenylate cyclase in nerve cord” value (“activation of adenylate cyclase” below) is recorded as “potent activators”. The “stimulation of adenylate cyclase” value in data set [2] is on record as “neither octopamine nor NC5 were active”. In addition, the “stimulation of adenylate cyclase” value in data set [3] was “neither octopamine nor NC5 caused any significant enzyme stimulation”. The “EC50 for stimulated light emission” value in data set [4] is on record as “about 5 nmoles/tail”. In addition, in data set [5], the “Ki for inhibition of feeding by the larvae” value worked out at 0.5 mg/leaf; the “rank order antifeeding effectiveness” value is recorded as “DDCDM+IBMX=NC7+IBMX>Octopamine+IBMX=DDCDM alone>NC7 alone>octopamine alone”; the “behaviour of larvae feeding on treated leaves” value was “tremors, hyperactivity, and leaf walk-off behavior”; the “effect of addition of IBMX on antifeeding / pesticidal activity” value is “considerably elevated both cyclic AMP content and pesticidal activity”. Also, the pesticidal activity result in data set [5] (no IBMX) is “little pesticidal activity”.
For `CC(C)NC[C@H](O)c1ccc(O)c(O)c1` [(-)-isoproterenol, reference compound], the “stimulation of adenylate cyclase” value in data set [2] is reported as “potently stimulates”.
As to `Cc1cc(Cl)ccc1N=CN` [DDCDM, di-demethylchlordimeform, reference compound], in data set [1], the “activation of adenylate cyclase” value is “potent activators”. The “rank order antifeeding effectiveness” value in data set [5] is “DDCDM+IBMX=NC7+IBMX>Octopamine+IBMX=DDCDM alone>NC7 alone>octopamine alone”. For the same compound, the results for the “Cyclic AMP Content (Fold-increase over Control)” value in data set [6] (+0.1 mM IBMX) and in data set [6] (-IBMX) were 11.1 ± 2.7 Fold-increase over Control and 5.4 ± 3.8 Fold-increase over Control, respectively.
As for `Cc1cc(Cl)ccc1N=C1NCCN1` [NC 7, 2-(2-methyl, -4-chlorophenylimino)imidazolidine], the octopamine potency ratio in data set [7] amounted to 9.8. Further, the “Ka ratio to octopamine” value in data set [7] (Table 2, clonidines) is recorded as 9.8. Also, the “Vmax (% OCT)” value in data set [7] (Table 2, clonidines, N.A. = no activity) is given as 68 % OCT. The “activation of adenylate cyclase” value in data set [1] is reported as “potent activators”. In data set [5] (Table 5, agonist 10^-2 gm/100 ml, IBMX 0.1 g/100 ml), the “% Leaf Remaining” value turned out to be 85%. Moreover, in data set [5], the “Ki for inhibition of feeding by the larvae” value is given as 0.01 mg/leaf; the “rank order antifeeding effectiveness” value is “DDCDM+IBMX=NC7+IBMX>Octopamine+IBMX=DDCDM alone>NC7 alone>octopamine alone”; the “behaviour of larvae feeding on treated leaves” value was “tremors, hyperactivity, and leaf walk-off behavior”; the “effect of addition of IBMX on antifeeding / pesticidal activity” value is “substantial increases in the potency”. The “Cyclic AMP Content (Fold-increase over Control)” value in data set [6] (+0.1 mM IBMX) is listed as 13.9 ± 3.0 Fold-increase over Control. Besides, the “Cyclic AMP Content (Fold-increase over Control)” value in data set [6] (-IBMX) is 2.2 ± 0.2 Fold-increase over Control.
